Data taken from patent US20250235545A1, “POLYPEPTIDE CONJUGATE AND USE THEREOF” (SHANGHAI CHIXI BIOMEDICAL TECHNOLOGY CO., LTD, priority 2024, published 2025).
In brackets after ≈: the same amount, converted by molar mass. Like-named read-outs stand apart in the source and are kept apart here.

How the values were obtained:
A2780 (ovarian cancer) = assay: cells; assay type: cell-based; details: CCK8, 48 h; for IC50: Homo sapiens, A2780
Description: (§1) Different types of cells were cultured with complete media (RPMI1640 (DMEM high sugar medium)+10% fetal bovine serum+1XP/S+sodium pyruvate 1 mM solution) in an incubator at 37° C. and 5% CO2 until the cells grew to a sufficient number, and the cells were collected, centrifuged at 1,000 g for 5 min, resuspended with an appropriate volume of a 10% RMPI1640 (DMEM high sugar medium) medium and counted. In a 96-well culture plate, 100 μL of cell culture fluid containing different concentrations of drugs was added, control wells (0.1% DMSO) with only corresponding drug solvents without drugs, as well as blank wells (Blank) with only the medium but without cells were set, and three parallel wells were set in each group. After that, the cells after cell counting were inoculated onto 96-well culture plates, with 100 μL of cell suspension per well, and an inoculation concentration of the cells was 5,000 cells (100 μL)/well. The plates were then cultured in a CO2 (5%) incubator at 37° C. for 48 h. After 48 h, 10 μL of a cell proliferation staining reagent (CCK8) was added to each well, the plates were incubated in a cell incubator for around 2 h, and an absorbance at 450 nm was detected.
(§2) Cell survival rates and median inhibitory concentrations of the drugs on the cells were calculated.
as §1, with “serum+1×P/S+sodium” for “serum+1XP/S+sodium”, “adjusted to an appropriate density.” for “counted.”
(§3) Cell survival rates and median inhibitory concentrations (IC50) of the drugs on the cells were calculated.

[1] = system: A549 (non-small cell lung cancer); assay: cells; assay type: cell-based; details: CCK8, 48 h; for IC50: Homo sapiens, A549
Description: as §1, §2
as §1, with “serum+1×P/S+sodium” for “serum+1XP/S+sodium”, “adjusted to an appropriate density.” for “counted.”
as §3

SJSA-1 (sarcoma tissue) = assay: cells; assay type: cell-based; details: CCK8, 48 h; for IC50: Homo sapiens, SJSA-1
Description: as §1, §2
as §1, with “serum+1×P/S+sodium” for “serum+1XP/S+sodium”, “adjusted to an appropriate density.” for “counted.”
as §3

[2] = system: SKBR3 (breast cancer tissue); assay: cells; assay type: cell-based; details: CCK8, 48 h; for IC50: Homo sapiens, SK-BR-3
Description: as §1, §2
as §1, with “serum+1×P/S+sodium” for “serum+1XP/S+sodium”, “adjusted to an appropriate density.” for “counted.”
as §3

[3] = system: colo320 (colorectal cancer tissue); assay: cells; assay type: cell-based; details: CCK8, 48 h, Table 6
Description: as §1, with “serum+1×P/S+sodium” for “serum+1XP/S+sodium”, “adjusted to an appropriate density.” for “counted.”
as §3

[4] = system: sarcoma SJSA-1 tumor model; details: 5 mg/kg once a week for three weeks
Description: Test objective: To investigate the antitumor efficacy of the above compounds in an animal tumor model of sarcoma SJSA-1.
(§4) Test drug: Polypeptide conjugate, Irinotecan, Belotecan and normal saline control group.
(§5) Test animals: 6-8 weeks old BALB/c mice, all female.
(§6) SJSA-1 cells were purchased from ATCC and cultured in a DMEM medium containing 10% fetal bovine serum at 37° C. in 5% CO2. Passaging was performed every three days, and cells within 15 generations were used. 2×10^7 corresponding cells were injected into right chests of nude mice subcutaneously. After a volume of the tumors reached at least 100 mm^3, the mice were grouped randomly, with three mice in each group. Then treatment was started, and the day when the treatment was started was the first day. […] The control group was administered with normal saline. Administration was performed once a week for three weeks.
as §6

[5] = system: colo320 colorectal cancer tumor model
Description: Test objective: To investigate the antitumor efficacy of the above compounds in an animal tumor model of colo320 colorectal cancer.
as §4, §5
Passaging was performed every three days, and cells within 15 generations were used. 7.5×10^6 corresponding cells were injected into right chests of nude mice subcutaneously. After a volume of the tumors reached at least 120 mm^3, the mice were grouped randomly, with three mice in each group. Then treatment was started, and the day when the treatment was started was the first day. […] The control group was administered with normal saline. Administration was performed once a week for four weeks.

[6] = MTD determination in mice (Examples 27, 36, 44); assay type: in vivo; details: mice, monitored for 14 d
Description: Test animals: 6-8 weeks old mice, all female; mice were grouped randomly, with six mice in each group, administered with drugs at different concentration gradients separately and monitored for 14 d. A mouse was euthanized at a loss of 20% of its initial weight and deemed to have died of poisoning.

[7] = 5 mg/kg once a week for four weeks, Table 3
[8] = 5 mg/kg once a week for four weeks, Table 8
[9] = Table 13 (Example 42), dose 5 mg/kg, once a week for four weeks, BALB/c mice
[10] = Table 14 (Example 43), dose 5 mg/kg, once a week for four weeks, BALB/c mice

| SMILES | Mouse weight (%) ([4]; Table 2) | SJSA-1 (sarcoma tissue) mean tumor volume (mm^3) ([4]; Table 2) | SJSA-1 (sarcoma) Growth rate (%) ([4]; Table 2) | Mouse weight (%) ([4]; Table 7) | SJSA-1 (sarcoma tissue) growth rate (%) ([4]; Table 7) | SJSA-1 (sarcoma tissue) mean tumor volume (mm^3) ([4]; Table 7) | Mouse weight (%) [5, 7] | colo320 (colorectal cancer cell) growth rate (%) [5, 7] | colo320 (colorectal cancer cell) mean tumor volume (mm^3) [5, 7] | Mouse weight (%) [5, 8] | colo320 (colorectal cancer cell) growth rate (%) [5, 8] | colo320 (colorectal cancer cell) mean tumor volume (mm^3) [5, 8] | Mouse weight (%) [5, 9] | colo320 (colorectal cancer cell) growth rate (%) [5, 9] | colo320 (colorectal cancer cell) mean tumor volume (mm^3) [5, 9] | IC50 A2780 (ovarian cancer) (A2780 (ovarian cancer); Table 1) | IC50 Ovarian cancer tissue (A2780) (A2780 (ovarian cancer); Table 6) | IC50 A549 (non-small cell lung cancer) ([1]; Table 1) | IC50 Non-small cell lung cancer tissue (A549) ([1]; Table 6) | IC50 SJSA-1 (sarcoma tissue) (SJSA-1 (sarcoma tissue); Table 1) | also measured |
| --- | --- | --- | --- | --- | --- | --- | --- | --- | --- | --- | --- | --- | --- | --- | --- | --- | --- | --- | --- | --- | --- |
| CC[C@@]1(O)C(=O)OCc2c1cc1n(c2=O)Cc2c-1nc1ccccc1c2CCNC(C)C [Belotecan, reference compound] | −9% | 1253.2 mm^3 | 1084.38% | −9% | 1084.38% | 1253.2 mm^3 | −9% | 869.93% | 963.5 mm^3 | −9% | 869.93% | 963.5 mm^3 | −9% | 869.93% | 963.5 mm^3 |  |  |  |  |  | IC50 (A2780 (ovarian cancer); Table 1, read-out: IC50 A2780 (ovarian cancer)): 0.0044 µg/mL (≈ 0.0101 µM); IC50 (A2780 (ovarian cancer); Table 6, read-out: IC50 Ovarian cancer tissue (A2780)): 0.0044 µg/mL (≈ 0.0101 µM); IC50 ([1]; Table 1, read-out: IC50 A549 (non-small cell lung cancer)): 0.0066 µg/mL (≈ 0.0152 µM); IC50 ([1]; Table 6, read-out: IC50 Non-small cell lung cancer tissue (A549)): 0.0066 µg/mL (≈ 0.0152 µM); IC50 (SJSA-1 (sarcoma tissue); Table 1, read-out: IC50 SJSA-1 (sarcoma tissue)): 0.0021 µg/mL (≈ 0.00484 µM); IC50 (SJSA-1 (sarcoma tissue); Table 6, read-out: IC50 Sarcoma tissue (SJSA-1)): 0.0021 µg/mL (≈ 0.00484 µM); IC50 ([2]; Table 1, read-out: IC50 SKBR3 (breast cancer tissue)): 0.0098 µg/mL (≈ 0.0226 µM); IC50 ([2]; Table 6, read-out: IC50 Breast cancer tissue (SKBR3)): 0.0098 µg/mL (≈ 0.0226 µM); IC50 ([3]; Homo sapiens, COLO 320): 0.014 µg/mL (≈ 0.0323 µM); Mouse weight (%) [5, 10]: −9%; colo320 (colorectal cancer cell) growth rate (%) [5, 10]: 869.93%; colo320 (colorectal cancer cell) mean tumor volume (mm^3) [5, 10]: 963.5 mm^3; MTD ([6]; female, mouse, in vivo, Table 15 (Example 44), six per group, read-out: MTD): 15 mg/kg; MTD ([6]; female, mouse, in vivo, Table 4, read-out: MTD): 15 mg/kg; MTD ([6]; female, mouse, in vivo, Table 9, read-out: MTD): 15 mg/kg |
| CC[C@@]1(O)C(=O)OCc2c1cc1n(c2=O)Cc2c-1nc1ccccc1c2CCNC [D1] | −6% | 1432 mm^3 | 1235.57% | −6% | 1235.57% | 1432 mm^3 | −7% | 1012.22% | 1121.1 mm^3 | −7% | 1012.22% | 1121.1 mm^3 | −7% | 1012.22% | 1121.1 mm^3 | 0.018 µg/mL (≈ 0.0444 µM) | 0.018 µg/mL (≈ 0.0444 µM) | 0.027 µg/mL (≈ 0.0666 µM) | 0.027 µg/mL (≈ 0.0666 µM) | 0.028 µg/mL (≈ 0.0691 µM) | IC50 Sarcoma tissue (SJSA-1) (SJSA-1 (sarcoma tissue); Table 6): 0.028 µg/mL (≈ 0.0691 µM); IC50 SKBR3 (breast cancer tissue) ([2]; Table 1): 0.050 µg/mL (≈ 0.123 µM); IC50 Breast cancer tissue (SKBR3) ([2]; Table 6): 0.050 µg/mL (≈ 0.123 µM); IC50 Colorectal cancer tissue (colo320) [3]: 0.040 µg/mL (≈ 0.0987 µM); MTD ([6]; Table 4): 25 mg/kg; MTD ([6]; Table 9): 25 mg/kg |
| CCNCCc1c2c(nc3ccccc13)-c1cc3c(c(=O)n1C2)COC(=O)[C@]3(O)CC [D2] | −8% | 1176.5 mm^3 | 1018.01% | −8% | 1018.01% | 1176.5 mm^3 | −7% | 946.13% | 1047.9 mm^3 | −7% | 946.13% | 1047.9 mm^3 |  |  |  | 0.018 µg/mL (≈ 0.0429 µM) | 0.018 µg/mL (≈ 0.0429 µM) | 0.030 µg/mL (≈ 0.0715 µM) | 0.030 µg/mL (≈ 0.0715 µM) | 0.023 µg/mL (≈ 0.0548 µM) | IC50 Sarcoma tissue (SJSA-1) (SJSA-1 (sarcoma tissue); Table 6): 0.023 µg/mL (≈ 0.0548 µM); IC50 SKBR3 (breast cancer tissue) ([2]; Table 1): 0.036 µg/mL (≈ 0.0858 µM); IC50 Breast cancer tissue (SKBR3) ([2]; Table 6): 0.036 µg/mL (≈ 0.0858 µM); IC50 Colorectal cancer tissue (colo320) [3]: 0.051 µg/mL (≈ 0.122 µM); MTD ([6]; Table 4): 25 mg/kg; MTD ([6]; Table 9): 25 mg/kg |
